IC50 data for 24 compounds are collected here from US10662156B2, “Guanidine derivative and medical use thereof” (Toray Industries, Inc., priority 2016, dated 2020).

Where a name gives a salt, the structure may show the parent alone.

The assay has as its target recombinant GST fusion MALT1 (human MALT1) (Homo sapiens (Human), UniProt Q9UDY8). The assay is described as follows: Evaluation of inhibition of protease activity of MALT1 (cleavage of fluorescent peptide substrate Ac-LRSR-AMC). In kind it is biochemical. Conditions: substrate Ac-LRSR-AMC 20 μmol/L, 30° C. for 80 minutes. Here is the method: The guanidine derivative (I) or the pharmacologically acceptable salt thereof was evaluated for its inhibition of the protease activity of MALT1 in an in vitro experimental system in accordance with the method described in the literature (Cancer Cell, 2012, Vol. 22, p. 825-837). Specifically, the evaluation was conducted by measuring the degree of reduction in fluorescence value by the compound relative to elevation in fluorescence value resulting from the cleavage of a fluorescently labeled artificial peptide substrate by recombinant MALT1.
A) Preparation of Recombinant GST Fusion MALT1:
Full-length cDNA of human MALT1 gene (GenBank accession No: AB026118.1) amplified by PCR was inserted in flame to a SalI site located downstream of GST gene in a pGEX6P3 vector (GE Healthcare Japan Corp.) to prepare a vector (hereinafter, referred to as a pGEX6P3-MALT1 vector). Subsequently, E. coli for protein expression (BL21-RIL-codon plus-DE3, Agilent Technologies, Inc.) was transformed with the pGEX6P3-MALT1 vector and then analyzed by ampicillin resistance screening and colony PCR to obtain an E. coli strain expressing recombinant GST fusion MALT1. Protein expression was induced with isopropyl-(3-thiogalactopyranoside. After the expression induction, E. coli precipitates were recovered by centrifugation from the E. coli culture solution, and the E. coli precipitates were homogenized and then centrifuged to obtain a supernatant. The supernatant was purified using GSTrap FF column (GE Healthcare Japan Corp.) to obtain recombinant GST fusion MALT1.
B) Evaluation of Inhibition of Protease Activity of MALT1:
To 89 μL of an enzyme solution ([…] GST fusion MALT1, 50 mmol/L MES, 150 mmol/L NaCl, 10% sucrose, 0.1% CHAPS, 10 mmol/L dithiothreitol, and 1 mol/L tri-ammonium citrate) per specimen, 1 μL of a test compound (DMSO-diluted solution) of each concentration was added to prepare a mixed solution. The mixed solution was incubated at room temperature for 30 minutes, followed by the measurement of the fluorescence value of the mixed solution (fluorescence value of the first measurement) (Ex: 380 nm, Em: 460 nm; Envision (Perkin Elmer Inc.)). Next, 10 μL of 200 μmol/L substrate (Ac-LRSR-AMC, SM Biochemicals LLC) was added (final concentration: 20 μmol/L) to the mixed solution, and the mixture was reacted by incubation at 30° C. for 80 minutes, followed by the measurement of the fluorescence value of the reaction solution (fluorescence value of the second measurement) (Ex: 380 nm, Em: 460 nm; Envision (Perkin Elmer Inc.)). A “well nonsupplemented with the test compound (only DMSO was added), nonsupplemented with the enzyme and supplemented with the substrate”, and a “well nonsupplemented with the test compound (only DMSO was added), supplemented with the enzyme and supplemented with the substrate” were established.
The fluorescence value of the first measurement was defined as “F1”, and the fluorescence value of the second measurement was defined as “F2”. F2−F1 of the “well nonsupplemented with the test compound (only DMSO was added), nonsupplemented with the enzyme and supplemented with the substrate” was defined as “Fback”, F2−F1 of the “well nonsupplemented with the test compound (only DMSO was added), supplemented with the enzyme and supplemented with the substrate” was defined as “Fpositive”, and F2−F1 of the “well supplemented with the test compound, supplemented with the enzyme and supplemented with the substrate” was defined as “Fsample”. The rate of inhibition (%) of the protease activity of MALT1 by the test compound was calculated according to the following expression. Rate of inhibition (%)=100×(1−(Fsample−Fback)/(Fpositive−Fback))

Chain of recombinant GST fusion MALT1 (human MALT1) (Q9UDY8 whole entry, the tested form may be a part): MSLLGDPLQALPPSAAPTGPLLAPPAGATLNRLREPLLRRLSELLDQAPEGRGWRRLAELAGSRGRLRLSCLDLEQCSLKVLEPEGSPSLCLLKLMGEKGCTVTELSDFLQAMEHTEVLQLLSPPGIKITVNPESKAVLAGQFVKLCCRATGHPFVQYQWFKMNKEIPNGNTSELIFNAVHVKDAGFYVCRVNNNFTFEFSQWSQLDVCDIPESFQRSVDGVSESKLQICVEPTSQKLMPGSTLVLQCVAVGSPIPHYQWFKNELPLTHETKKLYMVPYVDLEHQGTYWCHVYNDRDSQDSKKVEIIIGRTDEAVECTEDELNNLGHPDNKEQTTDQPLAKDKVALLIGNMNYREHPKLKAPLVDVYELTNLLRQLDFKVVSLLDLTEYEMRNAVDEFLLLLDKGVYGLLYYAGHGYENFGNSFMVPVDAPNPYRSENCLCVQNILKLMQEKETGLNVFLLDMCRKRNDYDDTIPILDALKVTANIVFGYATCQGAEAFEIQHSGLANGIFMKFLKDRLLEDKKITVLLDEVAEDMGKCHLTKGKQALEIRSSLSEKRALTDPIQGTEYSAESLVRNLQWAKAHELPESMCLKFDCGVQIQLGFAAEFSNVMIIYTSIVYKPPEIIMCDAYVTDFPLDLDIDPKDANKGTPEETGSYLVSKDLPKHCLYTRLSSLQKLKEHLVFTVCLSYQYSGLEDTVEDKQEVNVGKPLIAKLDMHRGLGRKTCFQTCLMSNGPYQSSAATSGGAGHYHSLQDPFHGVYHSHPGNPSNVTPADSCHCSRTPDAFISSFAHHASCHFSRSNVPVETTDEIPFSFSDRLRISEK

Consider `N/C(=N\S(=O)(=O)c1cccc(O)c1)NCc1cnc(-c2ccc(Cl)cc2)c(-c2ccc(Cl)cc2)c1` [Compound of Example 96, N-(amino(((5,6-bis(4-chlorophenyl)pyridin-3-yl)methyl)amino)methylene)-3-hydroxybenzenesulfonamide Hydrochloride], for which the IC50 amounted to 2140 nM. For the compound `N/C(=N\C(=O)C1CCCC1)NCc1cnc(-c2ccc(Cl)cc2)c(-c2ccc(Cl)cc2)c1` [Compound of Example 70, N-(amino(((5,6-bis(4-chlorophenyl)pyridin-3-yl)methyl)amino)methylene)cyclopentanecarboxamide], the IC50 is 341 nM. On to `N/C(=N\C(=O)c1ccccc1F)NCc1cnc(-c2ccc(Cl)cc2)c(-c2ccc(Cl)cc2)c1` [Compound of Example 67, N-(amino(((5,6-bis(4-chlorophenyl)pyridin-3-yl)methyl)amino)methylene)-2-fluorobenzamide], for which the IC50 was determined as 644 nM. Turning to `N/C(=N\C(=O)c1cscn1)NCc1cnc(-c2ccc(Cl)cc2)c(-c2ccc(Cl)cc2)c1` [Compound of Example 83, N-(amino(((5,6-bis(4-chlorophenyl)pyridin-3-yl)methyl)amino)methylene)thiazole-4-carboxamide], the IC50 was 942 nM. The result for `COc1ccc(C(=O)/N=C(\N)NCc2cnc(-c3ccc(Cl)cc3)c(-c3ccc(Cl)cc3)c2)cc1` [Compound of Example 69, N-(amino(((5,6-bis(4-chlorophenyl)pyridin-3-yl)methyl)amino)methylene)-4-methoxybenzamide] reads 778 nM; that for `COc1nc(-c2ccc(Cl)cc2)c(-c2ccc(Cl)cc2)cc1CN/C(N)=N/S(=O)(=O)c1ccccc1` [Compound of Example 88, N-(amino(((5,6-bis(4-chlorophenyl)-2-methoxypyridin-3-yl)methyl)amino)methylene)benzenesulfonamide], 104 nM; that for `COc1ccc(-c2ncc(CN/C(N)=N/S(=O)(=O)c3ccccc3)cc2-c2ccc(Cl)cc2)cc1` [Compound of Example 6, N-(amino(((5-(4-chlorophenyl)-6-(4-methoxyphenyl)pyridin-3-yl)methyl)amino)methylene)benzenesulfonamide], 505 nM. Then `COc1ccccc1S(=O)(=O)/N=C(\N)NCc1cnc(-c2ccc(Cl)cc2)c(-c2ccc(Cl)cc2)c1` [Compound of Example 49, N-(amino(((5,6-bis(4-chlorophenyl)pyridin-3-yl)methyl)amino)methylene)-2-methoxybenzenesulfonamide], with 326 nM.

On to `N/C(=N\S(=O)(=O)c1ccccc1)NCc1cnc(-c2ccc(Cl)cc2)c(-c2ccccc2)c1` [Compound of Example 14, N-(amino(((6-(4-chlorophenyl)-5-phenylpyridin-3-yl)methyl)amino)methylene)benzenesulfonamide], for which the IC50 was found to be 692 nM. Consider `N/C(=N\S(=O)(=O)c1ccccc1)NCc1cnc(-c2ccc(Cl)cc2)c(-c2ccc(OC(F)(F)F)cc2)c1` [Compound of Example 22, N-(amino(((6-(4-chlorophenyl)-5-(4-(trifluoromethoxy)phenyl)pyridin-3-yl)methyl)amino)methylene)benzenesulfonamide], for which the IC50 worked out at 745 nM. As for `CC(C)Oc1ccc(-c2cc(CN/C(N)=N/S(=O)(=O)c3ccccc3)cnc2-c2ccc(Cl)cc2)cc1` [Compound of Example 23, N-(amino(((6-(4-chlorophenyl)-5-(4-isopropoxyphenyl)pyridin-3-yl)methyl)amino)methylene)benzenesulfonamide], the IC50 amounted to 1720 nM. With `Cc1ccc(-c2ncc(CN/C(N)=N/S(=O)(=O)c3ccccc3)cc2-c2ccc(Cl)cc2)cc1` [Compound of Example 5, N-(amino(((5-(4-chlorophenyl)-6-(4-methylphenyl)pyridin-3-yl)methyl)amino)methylene)benzenesulfonamide], the IC50 was found to be 66 nM. In the case of `N/C(=N\C(=O)C1CC1)NCc1cnc(-c2ccc(Cl)cc2)c(-c2ccc(Cl)cc2)c1` [Compound of Example 71, N-(amino(((5,6-bis(4-chlorophenyl)pyridin-3-yl)methyl)amino)methylene)cyclopropanecarboxamide], the IC50 is 565 nM. For the compound `CCOC(=O)/N=C(\N)NCc1cnc(-c2ccc(Cl)cc2)c(-c2ccc(Cl)cc2)c1` [Compound of Example 81, 1-((5,6-bis(4-chlorophenyl)pyridin-3-yl)methyl)-2-(ethoxycarbonyl)guanidine Hydrochloride], the IC50 stood at 534 nM. On to `N/C(=N\S(=O)(=O)c1ccccc1)NCc1cnc(-c2cccc(Cl)c2)c(-c2ccc(Cl)cc2)c1` [Compound of Example 4, N-(amino(((6-(3-chlorophenyl)-5-(4-chlorophenyl)pyridin-3-yl)methyl)amino)methylene)benzenesulfonamide], for which the IC50 came to 1400 nM. `O=S(=O)(/N=C(\NO)NCc1cnc(-c2ccc(Cl)cc2)c(-c2ccc(Cl)cc2)c1)c1ccccc1` [Compound of Example 39, N-((((5,6-bis(4-chlorophenyl)pyridin-3-yl)methyl)amino)(hydroxyamino)methylene)benzenesulfonamide]: the IC50 came out at 106 nM. For the compound `N/C(=N\C(=O)C1CCCCC1)NCc1cnc(-c2ccc(Cl)cc2)c(-c2ccc(Cl)cc2)c1` [Compound of Example 73, N-(amino(((5,6-bis(4-chlorophenyl)pyridin-3-yl)methyl)amino)methylene)cyclohexanecarboxamide Hydrochloride], the IC50 stood at 300 nM. Regarding `CCOc1cccc(S(=O)(=O)/N=C(\N)NCc2cnc(-c3ccc(Cl)cc3)c(-c3ccc(Cl)cc3)c2)c1` [Compound of Example 51, N-(amino(((5,6-bis(4-chlorophenyl)pyridin-3-yl)methyl)amino)methylene)-3-ethoxybenzenesulfonamide], the IC50 amounted to 185 nM. Consider `Cc1ccc(-c2ncc(CN/C(N)=N/S(=O)(=O)c3ccccc3)cc2-c2ccc(C(F)(F)F)cc2)cc1` [Compound of Example 25, N-(amino(((6-(4-methylphenyl)-5-(4-(trifluoromethyl)phenyl)pyridin-3-yl)methyl)amino)methylene)benzenesulfonamide hydrochloride], for which the half-inhibitory concentration (IC50) came to 1840 nM. With `CN(C)C(=O)/N=C(\N)NCc1cnc(-c2ccc(Cl)cc2)c(-c2ccc(Cl)cc2)c1` [Compound of Example 79, 3-(amino(((5,6-bis(4-chlorophenyl)pyridin-3-yl)methyl)amino)methylene)-1,1-dimethylurea], the IC50 was found to be 1880 nM. On to `Cn1cc(S(=O)(=O)/N=C(\N)NCc2cnc(-c3ccc(Cl)cc3)c(-c3ccc(Cl)cc3)c2)cn1` [Compound of Example 53, N-(amino(((5,6-bis(4-chlorophenyl)pyridin-3-yl)methyl)amino)methylene)-1-methyl-1H-pyrazole-4-sulfonamide], for which the IC50 was 2010 nM. For `N/C(=N\S(=O)(=O)Cc1ccccc1)NCc1cnc(-c2ccc(Cl)cc2)c(-c2ccc(Cl)cc2)c1` [Compound of Example 59, N-(amino(((5,6-bis(4-chlorophenyl)pyridin-3-yl)methyl)amino)methylene)-1-phenylmethanesulfonamide], the IC50 was found to be 746 nM. With `CC(C)(C(=O)/N=C(\N)NCc1cnc(-c2ccc(Cl)cc2)c(-c2ccc(Cl)cc2)c1)c1ccccc1` [Compound of Example 86, N-(amino(((5,6-bis(4-chlorophenyl)pyridin-3-yl)methyl)amino)methylene)-2-methyl-2-phenylpropanamide], the IC50 amounted to 880 nM. The result for `CN/C(=N\S(=O)(=O)c1ccccc1)NCc1cnc(-c2ccc(Cl)cc2)c(-c2ccc(Cl)cc2)c1` [Compound of Example 40] reads 37 nM.
